Measured values as given in the supplement of paper PMC10307832.

What was measured:
Assay in all cases: relative viability (nuclei count vs DMSO), 5 days (fraction); higher = more cells survive
[1] = test system: LCLC-103H
Method in brief: (§1)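 One day after seeding in 1536-well plates, lung cancer cell lines were dosed by pin tool. Dosing was either single-drug or a fixed anchor-drug dose plus five library-drug doses (not always all listed) in √10 steps. After 5 days, nuclei were stained in one fix-and-stain step and counted on 4× images, and relative viability is the nuclei count of treated wells over that of vehicle wells, given as the median of duplicate plates.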

[2] = test system: NCI-H358
Method in brief: as §1

[3] = test system: NCI-H2347
Method in brief: as §1

[4] = test system: LU99A
Method in brief: as §1

[5] = test system: NCI-H520
Method in brief: as §1

[6] = test system: ABC-1
Method in brief: as §1

[7] = test system: NCI-H2126
Method in brief: as §1

[8] = test system: ChaGo-K-1
Method in brief: as §1

[9] = test system: NCI-H1944
Method in brief: as §1

[10] = test system: NCI-H1395
Method in brief: as §1

[11] = test system: NCI-H322M
Method in brief: as §1

[12] = test system: SK-LU-1
Method in brief: as §1

[13] = test system: RERF-LC-KJ
Method in brief: as §1

[14] = test system: NCI-H1755
Method in brief: as §1

[15] = test system: HCC-827
Method in brief: as §1

[16] = test system: NCI-H1666
Method in brief: as §1

[17] = test system: NCI-H1793
Method in brief: as §1

[18] = test system: CAL-12T
Method in brief: as §1

[19] = test system: LXF-289
Method in brief: as §1

[20] = test system: NCI-H3122
Method in brief: as §1

[21] = test system: HCC-44
Method in brief: as §1

CCNC(=O)c1noc(-c2cc(C(C)C)c(O)cc2O)c1-c1ccc(CN2CCOCC2)cc1 [Luminespib] + O=C(CCCCCCC(=O)Nc1ccccc1)NO [Vorinostat] (partner 1 µM)
relative viability ([1]; first compound 0.002 µM): 0.616 | relative viability ([1]; first compound 0.006325 µM): 0.718 | relative viability ([1]; first compound 0.02 µM): 0.661 | relative viability ([1]; first compound 0.06325 µM): 0.75 | relative viability ([1]; first compound 0.2 µM): 0.25 | relative viability ([2]; first compound 0.002 µM): 0.662 | relative viability ([2]; first compound 0.006325 µM): 0.66 | relative viability ([2]; first compound 0.02 µM): 0.669 | relative viability ([2]; first compound 0.06325 µM): 0.0646 | relative viability ([2]; first compound 0.2 µM): 0.0598 | relative viability ([3]; first compound 0.002 µM): 0.54 | relative viability ([3]; first compound 0.006325 µM): 0.413 | relative viability ([3]; first compound 0.02 µM): 0.589 | relative viability ([3]; first compound 0.06325 µM): 0.38 | relative viability ([3]; first compound 0.2 µM): 0.263 | relative viability ([4]; first compound 0.002 µM): 0.58 | relative viability ([4]; first compound 0.006325 µM): 0.45 | relative viability ([4]; first compound 0.02 µM): 0.263 | relative viability ([4]; first compound 0.06325 µM): 0.201 | relative viability ([4]; first compound 0.2 µM): 0.103 | relative viability ([5]; first compound 0.002 µM): 0.748 | relative viability ([5]; first compound 0.006325 µM): 0.747 | relative viability ([5]; first compound 0.02 µM): 0.624 | relative viability ([5]; first compound 0.06325 µM): 0.197 | relative viability ([5]; first compound 0.2 µM): 0.166 | relative viability ([6]; first compound 0.002 µM): 1.34 | relative viability ([6]; first compound 0.006325 µM): 0.291 | relative viability ([6]; first compound 0.02 µM): 1.06 | relative viability ([6]; first compound 0.06325 µM): 0.269 | relative viability ([6]; first compound 0.2 µM): 0.325 | relative viability ([7]; first compound 0.002 µM): 0.743 | relative viability ([7]; first compound 0.006325 µM): 0.765 | relative viability ([7]; first compound 0.06325 µM): 0.468 | relative viability ([7]; first compound 0.2 µM): 0.192 | relative viability ([8]; first compound 0.002 µM): 0.678 | relative viability ([8]; first compound 0.006325 µM): 0.728 | relative viability ([8]; first compound 0.02 µM): 0.529 | relative viability ([8]; first compound 0.06325 µM): 0.523 | relative viability ([8]; first compound 0.2 µM): 0.23 | relative viability ([9]; first compound 0.002 µM): 0.549 | relative viability ([9]; first compound 0.006325 µM): 0.571 | relative viability ([9]; first compound 0.02 µM): 0.354 | relative viability ([9]; first compound 0.06325 µM): 0.404 | relative viability ([9]; first compound 0.2 µM): 0.153 | relative viability ([10]; first compound 0.002 µM): 0.731 | relative viability ([10]; first compound 0.006325 µM): 0.751 | relative viability ([10]; first compound 0.02 µM): 0.508 | relative viability ([10]; first compound 0.06325 µM): 0.289 | relative viability ([10]; first compound 0.2 µM): 0.289 | relative viability ([11]; first compound 0.002 µM): 0.83 | relative viability ([11]; first compound 0.006325 µM): 0.407 | relative viability ([11]; first compound 0.02 µM): 0.736 | relative viability ([11]; first compound 0.06325 µM): 0.486 | relative viability ([11]; first compound 0.2 µM): 0.417 | relative viability ([12]; first compound 0.002 µM): 0.927 | relative viability ([12]; first compound 0.006325 µM): 0.596 | relative viability ([12]; first compound 0.02 µM): 0.615 | relative viability ([12]; first compound 0.06325 µM): 0.262 | relative viability ([12]; first compound 0.2 µM): 0.211 | relative viability ([13]; first compound 0.002 µM): 0.624 | relative viability ([13]; first compound 0.006325 µM): 0.707 | relative viability ([13]; first compound 0.02 µM): 0.473 | relative viability ([13]; first compound 0.06325 µM): 0.467 | relative viability ([13]; first compound 0.2 µM): 0.216 | relative viability ([14]; first compound 0.002 µM): 0.751 | relative viability ([14]; first compound 0.006325 µM): 0.774 | relative viability ([14]; first compound 0.02 µM): 0.835 | relative viability ([14]; first compound 0.06325 µM): 0.57 | relative viability ([14]; first compound 0.2 µM): 0.319 | relative viability ([15]; first compound 0.002 µM): 0.817 | relative viability ([15]; first compound 0.006325 µM): 0.884 | relative viability ([15]; first compound 0.02 µM): 0.45 | relative viability ([15]; first compound 0.06325 µM): 0.797 | relative viability ([15]; first compound 0.2 µM): 0.144 | relative viability ([16]; first compound 0.002 µM): 0.983 | relative viability ([16]; first compound 0.006325 µM): 0.994 | relative viability ([16]; first compound 0.02 µM): 1.19 | relative viability ([16]; first compound 0.06325 µM): 1.03 | relative viability ([16]; first compound 0.2 µM): 0.909 | relative viability ([17]; first compound 0.002 µM): 0.631 | relative viability ([17]; first compound 0.006325 µM): 0.556 | relative viability ([17]; first compound 0.02 µM): 0.271 | relative viability ([17]; first compound 0.06325 µM): 0.107 | relative viability ([17]; first compound 0.2 µM): 0.122 | relative viability ([18]; first compound 0.002 µM): 0.725 | relative viability ([18]; first compound 0.006325 µM): 0.802 | relative viability ([18]; first compound 0.02 µM): 0.29 | relative viability ([18]; first compound 0.06325 µM): 0.101 | relative viability ([18]; first compound 0.2 µM): 0.118 | relative viability ([19]; first compound 0.002 µM): 0.69 | relative viability ([19]; first compound 0.006325 µM): 0.707 | relative viability ([19]; first compound 0.02 µM): 1 | relative viability ([19]; first compound 0.06325 µM): 0.518 | relative viability ([19]; first compound 0.2 µM): 0.147 | relative viability ([20]; first compound 0.002 µM): 0.991 | relative viability ([20]; first compound 0.006325 µM): 0.973 | relative viability ([20]; first compound 0.02 µM): 0.456 | relative viability ([20]; first compound 0.06325 µM): 0.787 | relative viability ([20]; first compound 0.2 µM): 0.067 | relative viability ([21]; first compound 0.002 µM): 1.1 | relative viability ([21]; first compound 0.006325 µM): 1.13 | relative viability ([21]; first compound 0.02 µM): 1.19 | relative viability ([21]; first compound 0.06325 µM): 1.11 | relative viability ([21]; first compound 0.2 µM): 0.924
